The results in this text go back to patent US6664214B1, “Uracil compounds and use thereof” (Sumitomo Chemical Company, Limited, priority 1999, dated 2003).

Assay [1] concerns velvetleaf. Description: Test Example 4: soil surface treatment on upland field (Table 5). The assay is classed as in vivo, Abutilon theophrasti. Further details: key: 0: little difference in the degree of germination or growth between the treated plants and the untreated plants at the time of examination; 10: the treated plants died completely or their germination or growth was completely inhibited. The settings on record: 500 g/ha active ingredient, examined 12 days after application, index 0-10. An excerpt:
(§1) In the examples, the compounds are identified by the Compound Numbers as in Tables 1 to 3. […] A cylindrical plastic pot having a diameter of 10 cm and a depth of 10 cm was filled with soil and seeded ivyleaf morningglory, velvetleaf and barnyardgrass. Then each of compounds listed below was formulated into an emulsifiable concentrate according to Formulation Example 2 and then diluted to the prescribed amount with water and dilution was uniformly sprayed over the surface of the soil with sprayer at the rate of 1000 liters per hectare. After the application, the test plants were grown in a greenhouse for 12 days, and the herbicidal activity was examined.

Assay [2] relates to barnyardgrass. The description is as above. It is filed as in vivo, Echinochloa crus-galli. To be noted: 500 g/ha active ingredient, examined 12 days after application, index 0-10. The arrangement: key: 0: little difference in the degree of germination or growth between the treated plants and the untreated plants at the time of examination; 10: the treated plants died completely or their germination or growth was completely inhibited.
Text: as §1

The subject of assay [3] is ivyleaf morningglory. Description: Test Example 3: foliar treatment on upland field (Table 4). It is filed as in vivo, Ipomoea hederacea. The arrangement: key: 0: little difference in the degree of germination or growth between the treated plants and the untreated plants at the time of examination; 10: the treated plants died completely or their germination or growth was completely inhibited. The settings on record: 125 g/ha active ingredient, examined 16 days after application, index 0-10. The protocol: (§2) In the examples, the compounds are identified by the Compound Numbers as in Tables 1 to 3. […] A cylindrical plastic pot having a diameter of 10 cm and a depth of 10 cm was filled with soil and seeded with ivyleaf momingglory, velvetleaf and barnyardgrass. These test plants were grown in a greenhouse for 10 days. Then each of compounds listed below was formulated into an emulsifiable concentrate according to Formulation Example 2 and then diluted to the prescribed amount with water containing a spreading agent and the dilution was uniformly sprayed over the foliage of the test plants with sprayer at a rate of 1000 liters per hectare. After the application, the test plants were grown in the greenhouse for 16 days, and the herbicidal activity were determined.

Assay [4] has as its system velvetleaf. Description: Test Example 2: soil surface treatment on upland field. To be noted: 500 g/ha, 12 days after application. The assay is classed as in vivo, Abutilon theophrasti.
Text: as §1, with “seeded with velvetleaf.” for “seeded ivyleaf morningglory, velvetleaf and barnyardgrass.”, “compounds 1-1, 2-1, 2-2, 3-1 and 3-101” for “compounds listed below”, “at a” for “at the”

Assay [5] relates to velvetleaf. Description: Test Example 3: foliar treatment on upland field (Table 4). It is filed as in vivo, Abutilon theophrasti. To be noted: 125 g/ha active ingredient, examined 16 days after application, index 0-10. The arrangement: key: 0: little difference in the degree of germination or growth between the treated plants and the untreated plants at the time of examination; 10: the treated plants died completely or their germination or growth was completely inhibited. The protocol:
as §2

Assay [6] has as its system velvetleaf. Description: Test Example 1: foliar treatment on upland field. The assay is classed as in vivo, Abutilon theophrasti. To be noted: 125 g/ha, 8 days after application. The protocol:
(§3) In the examples, the compounds are identified by the Compound Numbers as in Tables 1 to 3.
(§4) A cylindrical plastic pot having a diameter of 10 cm and a depth of 10 cm was filled with soil and seeded with ivyleaf momingglory, velvetleaf and bamyardgrass. These test plants were grown in a greenhouse for 9 days. Then each of compounds 1-1, 2-1, 2-2, 3-1 and 3-101 was formulated into an emulsifiable concentrate according to Formulation Example 2 and then diluted to the prescribed amount with water containing a spreading agent and the dilution was uniformly sprayed over the foliage of the test plants with sprayer at a rate of 1000 liters per hectare. After the application, the test plants were grown in the greenhouse for 8 days, and the herbicidal activity were determined.

In assay [7] the test system is ivyleaf morningglory. Description: Test Example 1: foliar treatment on upland field. To be noted: 125 g/ha, 8 days after application. It is filed as in vivo, Ipomoea hederacea. The protocol:
as §3, §4

The test system of assay [8] is ivyleaf morningglory. Description: Test Example 4: soil surface treatment on upland field (Table 5). It is filed as in vivo, Ipomoea hederacea. Further details: key: 0: little difference in the degree of germination or growth between the treated plants and the untreated plants at the time of examination; 10: the treated plants died completely or their germination or growth was completely inhibited. The settings on record: 500 g/ha active ingredient, examined 12 days after application, index 0-10.
Text: as §1

In assay [9] the test system is barnyardgrass. Description: Test Example 1: foliar treatment on upland field. It is filed as in vivo, Echinochloa crus-galli. To be noted: 125 g/ha, 8 days after application. The protocol: as §3, §4
Assay [10] relates to large crabgrass. Description: Test Example 5: foliar treatment on upland field (Table 6). The assay is classed as in vivo, Digitaria sanguinalis. The settings on record: 125 g/ha, 19 days after application, index 0 to 10. Further details: key: 0: little difference in the degree of germination or growth between the treated plants and the untreated plants at the time of examination; 10: the treated plants died completely or their germination or growth was completely inhibited. The protocol:
In the examples, the compounds are identified by the Compound Numbers as in Tables 1 to 3. […] A pot for plug seedlings seeded with large crabgrass. The test plant was grown in a greenhouse for 14 days, then transplanted into a plastic pot having an area of 17×12 cm^2 and a depth of 7 cm, and further the test plants were grown in the greenhouse for 8 days. Then each of compounds listed below was formulated into an emulsifiable concentrate according to Formulation Example 2 and then diluted to the prescribed amount with water containing a spreading agent and the dilution was uniformly sprayed over the foliage of the test plants with sprayer at a rate of 1000 liters per hectare. After the application, the test plants were grown in the greenhouse for 19 days, and the herbicidal activity were determined.

In assay [11] the test system is barnyardgrass. Description: Test Example 3: foliar treatment on upland field (Table 4). It is filed as in vivo, Echinochloa crus-galli. The arrangement: key: 0: little difference in the degree of germination or growth between the treated plants and the untreated plants at the time of examination; 10: the treated plants died completely or their germination or growth was completely inhibited. To be noted: 125 g/ha active ingredient, examined 16 days after application, index 0-10. On the procedure:
as §2

A further assay deals with giant foxtail. Description: Test Example 6: foliar treatment on upland field (Table 7). The assay is classed as in vivo, Setaria faberi. To be noted: 8 g/ha, 19 days after application, index 0 to 10. The arrangement: key: 0: little difference in the degree of germination or growth between the treated plants and the untreated plants at the time of examination; 10: the treated plants died completely or their germination or growth was completely inhibited. On the procedure: (§5) In the examples, the compounds are identified by the Compound Numbers as in Tables 1 to 3. […] A plastic pot having a area of 27×20 cm^2 and a depth of 7.5 cm filled with soil, seeded with barnyardgrass. The test plant was grown in a greenhouse for 4 days. The seedlings of large crabgrass and giant foxtail, which were seeded into a pot for plug seedlings and grown in a greenhouse for 14 days, were transplanted into the plastic pot. The test plants, further, were grown in the greenhouse for 8 days. Then each of compound listed below was formulated into an emulsifiable concentrate according to Formulation Example 2 and then diluted to the prescribed amount with water containing a spreading agent and the dilution was uniformly sprayed over the foliage of the test plants with sprayer at a rate of 1000 liters per hectare. After the application, the test plants were grown in the greenhouse for 19 days, and the herbicidal activity were determined.

For assay [12], the system named is barnyardgrass. Described as above. The assay is classed as in vivo, Echinochloa crus-galli. The arrangement: key: 0: little difference in the degree of germination or growth between the treated plants and the untreated plants at the time of examination; 10: the treated plants died completely or their germination or growth was completely inhibited. The settings on record: 8 g/ha, 19 days after application, index 0 to 10. The protocol: as §5

Assay [13] relates to large crabgrass. Described as above. The assay is classed as in vivo, Digitaria sanguinalis. The arrangement: key: 0: little difference in the degree of germination or growth between the treated plants and the untreated plants at the time of examination; 10: the treated plants died completely or their germination or growth was completely inhibited. The settings on record: 8 g/ha, 19 days after application, index 0 to 10. The protocol: as §5

With `CCOC(=O)C(C)Oc1cccc(COc2cc(-n3c(=O)cc(C(F)(F)F)n(C)c3=O)c(F)cc2Cl)c1` (stereo not shown) [Compound 2-2, Ethyl 2-[3-({2-chloro-4-fluoro-5-[3-methyl-2,6-dioxo-4-(trifluoromethyl)-1,2,3,6-tetrahydropyrimidine-1-yl]phenoxy}methyl)phenoxy]propionate], the “Herbicidal effect Velvetleaf” value with velvetleaf [1] and with velvetleaf [5] was 10 throughout. Besides, the “Herbicidal effect Barnyardgrass” value with barnyardgrass [2] and in the assay with barnyardgrass [11] was 10 each time. The “Herbicidal effect Ivyleaf morningglory” value in the assay with ivyleaf morningglory [3] and with ivyleaf morningglory [8] was 10 throughout. For the same compound, the germination of velvetleaf entry with velvetleaf [4] is given as “completely controlled”. Further, in the assay with velvetleaf [6], the growth of velvetleaf entry is listed as “completely controlled”. The “growth of ivyleaf morningglory” value in the assay with ivyleaf morningglory [7] is recorded as “completely controlled”. The growth of barnyardgrass entry in the assay on barnyardgrass [9] is reported as “completely controlled”. Moreover, the “Herbicidal effect Large crabgrass” value in the assay on large crabgrass [10] stood at 10.
Regarding `COC(=O)C(C)Oc1ccc(COc2cc(-n3c(=O)cc(C(F)(F)F)n(C)c3=O)c(F)cc2Cl)cc1` (stereo not shown) [Compound 1-1, methyl 2-[4-({2-chloro-4-fluoro-5-[3-methyl-2,6-dioxo-4-(trifluoromethyl)-1,2,3,6-tetrahydropyrimidine-1-yl]phenoxyl}methyl)phenoxy]propionate], the “Herbicidal effect Velvetleaf” value with velvetleaf [1] and with velvetleaf [5] was 10 in each case. Also, the “Herbicidal effect Barnyardgrass” value in the assay on barnyardgrass [2] turned out to be 9; with barnyardgrass [11], 10. Further, the “Herbicidal effect Giant foxtail” value in the assay with giant foxtail stood at 9. The “Herbicidal effect Barnyard-grass” value in the assay on barnyardgrass [12] was 10. The “Herbicidal effect Ivyleaf morningglory” value in the assay on ivyleaf morningglory [3] and with ivyleaf morningglory [8] was 10 throughout. Further, the germination of velvetleaf result with velvetleaf [4] was “completely controlled”. The growth of velvetleaf entry in the assay on velvetleaf [6] was “completely controlled”. Besides, in the assay on ivyleaf morningglory [7], the “growth of ivyleaf morningglory” value is listed as “completely controlled”. Further, the growth of barnyardgrass result in the assay with barnyardgrass [9] was “completely controlled”. The “Herbicidal effect Large crabgrass” value in the assay on large crabgrass [10] and in the assay with large crabgrass [13] was 10 throughout.
On to `COC(=O)C(C)Oc1cccc(COc2cc(-n3c(=O)cc(C(F)(F)F)n(C)c3=O)c(F)cc2Cl)c1` (stereo not shown) [Compound 2-1, methyl 2-[3-({2-chloro-4-fluoro-5-[3-methyl-2,6-dioxo-4-(trifluoromethyl)-1,2,3,6-tetrahydropyrimidine-1-yl]phenoxy}methyl)phenoxy]propionate], for which the “Herbicidal effect Velvetleaf” value with velvetleaf [1] and in the assay on velvetleaf [5] was 10 each time. The “Herbicidal effect Barnyardgrass” value with barnyardgrass [2] and with barnyardgrass [11] was 10 throughout. In the assay on giant foxtail, the “Herbicidal effect Giant foxtail” value amounted to 10. In addition, the “Herbicidal effect Barnyard-grass” value with barnyardgrass [12] is reported as 10. The “Herbicidal effect Ivyleaf morningglory” value in the assay with ivyleaf morningglory [3] and with ivyleaf morningglory [8] was 10 in each case. Also, the germination of velvetleaf entry in the assay on velvetleaf [4] is “completely controlled”. The growth of velvetleaf entry in the assay on velvetleaf [6] was “completely controlled”. The “growth of ivyleaf morningglory” value with ivyleaf morningglory [7] is listed as “completely controlled”. Further, in the assay with barnyardgrass [9], the growth of barnyardgrass entry is listed as “completely controlled”. The “Herbicidal effect Large crabgrass” value in the assay on large crabgrass [10] and in the assay on large crabgrass [13] was 10 throughout.
Consider `CCc1ccc(COc2cc(-n3c(=O)cc(C(F)(F)F)n(C)c3=O)c(F)cc2Cl)c(OC(C)C(=O)OC)c1` (stereo not shown) [Compound 3-101, Methyl 2-[2-({2-chloro-4-fluoro-5-[3-methyl-2,6-dioxo-4-(trifluoromethyl)-1,2,3,6-tetrahydropyrimidine-1-yl]phenoxy}methyl)-5-ethylphenoxy]propionate], for which the germination of velvetleaf result in the assay on velvetleaf [4] was “completely controlled”. Besides, the growth of velvetleaf result in the assay with velvetleaf [6] is reported as “completely controlled”. Besides, in the assay on ivyleaf morningglory [7], the “growth of ivyleaf morningglory” value is given as “completely controlled”. For the same compound, the growth of barnyardgrass entry in the assay with barnyardgrass [9] is recorded as “completely controlled”.
